Reference: ChEMBL document CHEMBL1201862, “PubChem BioAssay data set” (2004)
Active and inactive are the calls of the source.

Assays:
[1] = biological target: T1, Replicative DNA helicase DnaB (Mycobacterium tuberculosis, UniProt P9WMR3); experiment: DnaB intein splicing inhibitors, dose response, biochemical, cell-free fluorescence (AID 449749); assay type: functional
T1 sequence (P9WMR3 whole entry): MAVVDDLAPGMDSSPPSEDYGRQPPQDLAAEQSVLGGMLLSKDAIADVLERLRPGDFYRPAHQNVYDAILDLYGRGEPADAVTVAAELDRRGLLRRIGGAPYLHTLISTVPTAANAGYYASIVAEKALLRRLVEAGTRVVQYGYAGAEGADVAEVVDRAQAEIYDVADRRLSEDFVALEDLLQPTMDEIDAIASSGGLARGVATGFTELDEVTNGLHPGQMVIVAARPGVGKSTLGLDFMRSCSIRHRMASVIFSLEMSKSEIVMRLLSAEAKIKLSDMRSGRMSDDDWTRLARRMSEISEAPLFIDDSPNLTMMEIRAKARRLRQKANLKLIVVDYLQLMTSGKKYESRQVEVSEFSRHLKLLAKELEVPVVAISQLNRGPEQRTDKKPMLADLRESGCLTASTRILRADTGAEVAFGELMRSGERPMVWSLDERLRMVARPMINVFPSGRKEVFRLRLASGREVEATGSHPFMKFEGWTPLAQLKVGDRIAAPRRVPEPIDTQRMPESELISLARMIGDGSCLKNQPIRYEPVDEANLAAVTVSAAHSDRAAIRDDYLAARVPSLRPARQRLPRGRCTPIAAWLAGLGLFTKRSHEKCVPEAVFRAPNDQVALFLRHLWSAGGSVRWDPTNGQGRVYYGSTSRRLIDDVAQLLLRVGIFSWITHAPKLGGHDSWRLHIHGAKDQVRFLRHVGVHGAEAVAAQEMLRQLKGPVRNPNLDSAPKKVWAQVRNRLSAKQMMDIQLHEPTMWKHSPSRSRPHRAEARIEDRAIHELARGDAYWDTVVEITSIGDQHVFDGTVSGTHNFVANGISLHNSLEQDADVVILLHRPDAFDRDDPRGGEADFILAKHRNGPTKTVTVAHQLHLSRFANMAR

[2] = biological target: T2, Corticotropin-releasing factor receptor 2/Corticotropin-releasing factor-binding protein (Homo sapiens, UniProt P24387+Q13324); experiment: activators of CRF receptor 2 with binding protein – uHTS hits, confirmation (AID 602473); assay type: functional; details: read-out: EC50_Mean
T2 sequence (Q13324 whole entry): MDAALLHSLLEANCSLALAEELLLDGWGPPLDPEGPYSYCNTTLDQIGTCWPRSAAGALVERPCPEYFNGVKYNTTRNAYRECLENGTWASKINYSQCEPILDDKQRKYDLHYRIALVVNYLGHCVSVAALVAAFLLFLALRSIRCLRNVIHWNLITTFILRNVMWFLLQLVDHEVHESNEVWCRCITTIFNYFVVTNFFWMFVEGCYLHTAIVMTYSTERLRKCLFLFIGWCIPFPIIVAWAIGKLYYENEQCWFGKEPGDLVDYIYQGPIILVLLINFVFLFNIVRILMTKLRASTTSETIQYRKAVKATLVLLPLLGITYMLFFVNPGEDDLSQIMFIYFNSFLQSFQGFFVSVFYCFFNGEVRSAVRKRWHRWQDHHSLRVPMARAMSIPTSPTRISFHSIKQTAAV
T2 sequence (P24387 whole entry): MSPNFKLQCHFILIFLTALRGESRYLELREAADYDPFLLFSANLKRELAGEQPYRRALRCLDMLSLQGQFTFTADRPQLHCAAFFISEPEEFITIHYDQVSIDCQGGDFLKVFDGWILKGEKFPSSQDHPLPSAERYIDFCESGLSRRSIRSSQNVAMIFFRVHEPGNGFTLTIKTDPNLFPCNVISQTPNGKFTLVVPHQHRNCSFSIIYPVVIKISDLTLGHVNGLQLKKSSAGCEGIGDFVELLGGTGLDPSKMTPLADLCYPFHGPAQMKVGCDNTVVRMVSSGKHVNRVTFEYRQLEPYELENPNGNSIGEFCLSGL

[3] = biological target: T2, Corticotropin-releasing factor receptor 2/Corticotropin-releasing factor-binding protein; experiment: Dose Response confirmation of uHTS hits for small molecule antagonists of the CRF-binding protein and CRF-R2 receptor complex.; assay type: functional; details: read-out: IC50_Mean
[4] = CRF-BP/CRF-R2 complex antagonists, dose response, cell-based, uHTS hits, 384-well (AID 651639); assay type: functional, Homo sapiens; details: read-out: IC50_Mean
Protein RecA = biological target: T3, Protein RecA (Mycobacterium tuberculosis, UniProt P9WHJ3); experiment: Fluorescence Cell-Free Homogeneous Dose Retest to Identify Inhibitors of RecA-Intein Splicing Activity. [Related pubchem assays (depositor defined):AID2097, AID2223, AID489010, AID492950]; assay type: functional
T3 sequence (P9WHJ3 whole entry): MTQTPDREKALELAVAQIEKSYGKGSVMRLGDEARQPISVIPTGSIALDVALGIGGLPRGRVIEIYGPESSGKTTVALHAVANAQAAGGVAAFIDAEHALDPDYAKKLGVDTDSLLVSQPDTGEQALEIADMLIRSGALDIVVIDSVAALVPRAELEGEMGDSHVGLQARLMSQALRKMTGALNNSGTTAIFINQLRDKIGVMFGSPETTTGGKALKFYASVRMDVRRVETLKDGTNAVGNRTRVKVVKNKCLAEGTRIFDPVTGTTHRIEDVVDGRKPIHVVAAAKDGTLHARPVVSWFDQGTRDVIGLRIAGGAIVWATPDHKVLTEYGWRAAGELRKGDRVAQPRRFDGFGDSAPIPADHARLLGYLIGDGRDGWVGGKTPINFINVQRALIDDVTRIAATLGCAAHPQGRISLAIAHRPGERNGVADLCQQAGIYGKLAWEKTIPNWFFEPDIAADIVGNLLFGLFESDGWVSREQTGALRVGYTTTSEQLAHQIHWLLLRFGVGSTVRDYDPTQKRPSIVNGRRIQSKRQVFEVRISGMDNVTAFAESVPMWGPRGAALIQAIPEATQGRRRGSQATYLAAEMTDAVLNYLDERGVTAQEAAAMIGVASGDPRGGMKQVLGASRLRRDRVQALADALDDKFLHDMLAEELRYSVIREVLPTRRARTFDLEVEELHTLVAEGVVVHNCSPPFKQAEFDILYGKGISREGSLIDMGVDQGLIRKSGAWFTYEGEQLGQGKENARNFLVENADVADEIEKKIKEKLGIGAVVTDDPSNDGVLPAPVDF

[5] = StAR promoter reporter inhibition counter-screen, dose response, counter-screen for LRH-1 inverse agonist project, cell-based, luminescence, luciferase reporter (AID 651969); assay type: functional
[6] = C. albicans growth with fluconazole, confirmation, fluorescence, retest (AID 2467); assay type: functional, cell-based
[7] = biological target: Nuclear receptor subfamily 5 group A member 2 (Homo sapiens, UniProt O00482); assay type: functional, cell-based;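 note: HEK293T cells transfected with LRH-1 and a StAR promoter luciferase reporter; potency for inhibitors that lower LRH-1 driven reporter light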
Steroidogenic factor 1 = Steroidogenic factor 1 (Homo sapiens, UniProt Q13285); experiment: Counterscreen for inverse agonists of the liver receptor homolog-1 (LRH-1; NR5A2): Luminescence-based cell-based high throughput dose response assay to identify inverse agonists of the Steroidogenic Factor 1 Nuclear Receptor (SF1; NR5A1).; assay type: functional
[8] = NIH-3T3 fibroblast cytotoxicity, dose response, cytotoxicity control, cell-based, fluorescence, Alamar Blue, secondary assay (AID 2327); assay type: functional;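 note: NIH-3T3 mouse fibroblasts cultured with fluconazole at 8 µg/mL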
[9] = THP-1 cell cytotoxicity, dose response, cytotoxicity control for non-replicating M. tuberculosis project (AID 489025); assay type: functional
[10] = Vero E6 cell cytotoxicity, dose response, cytotoxicity control for non-replicating M. tuberculosis project, secondary assay (AID 492998); assay type: functional, VeroE6; details: Vero C1008
cells = assay type: functional
Troponin, cardiac muscle = Troponin, cardiac muscle (Homo sapiens, UniProt P19429+P45379+P63316); experiment: Fluorescence-based biochemical high throughput dose response assay for activators of the calcium sensitivity of cardiac Regulated Thin Filaments (RTF). [Related pubchem assays (depositor defined):AID493008, AID493018, AID504382, AID504383]; assay type: protein-complex assay
[11] = biological target: T4, Short transient receptor potential channel 4 (Mus musculus, UniProt Q9QUQ5); experiment: mouse TRPC4 channel inhibitors, dose response, cell-based, HEK293 TRPC4/mu-opioid, Fluo-4 calcium (AID 434942); assay type: functional;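 note: potency of inhibitors blocking the TRPC4 calcium response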
T4 sequence (Q9QUQ5 whole entry): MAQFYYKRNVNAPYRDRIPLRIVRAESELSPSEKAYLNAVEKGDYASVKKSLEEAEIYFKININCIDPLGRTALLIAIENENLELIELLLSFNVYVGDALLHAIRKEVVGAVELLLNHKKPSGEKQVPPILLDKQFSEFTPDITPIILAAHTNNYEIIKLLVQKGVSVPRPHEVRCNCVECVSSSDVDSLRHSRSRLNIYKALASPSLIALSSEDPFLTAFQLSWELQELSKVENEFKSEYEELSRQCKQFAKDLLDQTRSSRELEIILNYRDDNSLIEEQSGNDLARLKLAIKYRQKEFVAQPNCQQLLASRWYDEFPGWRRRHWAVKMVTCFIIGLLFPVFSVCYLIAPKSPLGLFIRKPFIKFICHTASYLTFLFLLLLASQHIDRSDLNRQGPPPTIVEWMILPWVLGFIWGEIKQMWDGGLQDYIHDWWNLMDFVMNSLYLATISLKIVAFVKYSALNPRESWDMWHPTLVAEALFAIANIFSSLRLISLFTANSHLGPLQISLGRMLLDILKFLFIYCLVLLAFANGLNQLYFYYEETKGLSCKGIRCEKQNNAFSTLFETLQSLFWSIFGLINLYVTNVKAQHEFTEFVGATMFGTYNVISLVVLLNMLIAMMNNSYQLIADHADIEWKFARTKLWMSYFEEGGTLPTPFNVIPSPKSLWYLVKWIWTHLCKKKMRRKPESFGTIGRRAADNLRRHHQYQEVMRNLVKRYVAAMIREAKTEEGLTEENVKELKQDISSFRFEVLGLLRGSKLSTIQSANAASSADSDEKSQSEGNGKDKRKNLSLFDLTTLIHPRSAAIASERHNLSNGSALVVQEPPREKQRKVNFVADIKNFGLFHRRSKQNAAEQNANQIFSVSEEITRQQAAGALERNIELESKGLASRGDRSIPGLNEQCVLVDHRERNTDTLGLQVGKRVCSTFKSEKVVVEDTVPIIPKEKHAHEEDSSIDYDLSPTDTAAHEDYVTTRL

Streptococcus = experiment: Group A Streptococcus viability loss, dose response, counter-screen for streptokinase expression inhibitor project, luminescence, BacTiterGlo (AID 1915); assay type: functional, organism-based;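 note: potency for reduction of bacterial viability or growth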
[12] = system: Streptococcus sp. 'group A'; experiment: growth inhibition of control SK(-) GAS strain, dose response, counter-screen for streptokinase expression inhibitor project, luminescence, kanamycin, BacTiterGlo, confirmation (AID 1900); assay type: functional, organism-based
[13] = A cytotoxicity screen of small molecule inhibitors of the PhoP region in Salmonella typhi identified in the primary screen. [Related pubchem assays: 1850, 1864, 1985 ]; assay type: functional
Streptokinase A = biological target: T5, Streptokinase A (Streptococcus pyogenes serotype M1, UniProt P10520); experiment: S. pyogenes streptokinase expression inhibitors, potency, dose response, plasminogen activation absorbance, OD405 (AID 1914); assay type: functional, Streptococcus pyogenes M1 GAS;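 note: secreted streptokinase activity via plasminogen activation per viability signal from cell pellet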
T5 sequence (P10520 whole entry): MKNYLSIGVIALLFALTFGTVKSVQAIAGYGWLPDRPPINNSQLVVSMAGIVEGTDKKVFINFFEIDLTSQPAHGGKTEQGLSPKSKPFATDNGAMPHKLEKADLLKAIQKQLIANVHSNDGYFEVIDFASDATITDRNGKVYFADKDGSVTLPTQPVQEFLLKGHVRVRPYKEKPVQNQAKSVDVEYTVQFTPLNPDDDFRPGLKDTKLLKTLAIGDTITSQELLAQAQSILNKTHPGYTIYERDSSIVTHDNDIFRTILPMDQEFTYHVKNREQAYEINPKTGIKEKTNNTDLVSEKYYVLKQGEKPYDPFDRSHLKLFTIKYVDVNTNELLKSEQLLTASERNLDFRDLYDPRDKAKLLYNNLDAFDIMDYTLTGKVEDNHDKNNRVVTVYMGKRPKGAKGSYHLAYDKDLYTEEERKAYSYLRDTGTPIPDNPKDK

[14] = AlphaScreen signal interference compounds, dose response, artefact control for ARNT-TACC3 interaction inhibitor project, biochemical, luminescence, cherry-pick (AID 651705); assay type: functional;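 note: AlphaScreen bead proximity signal that flags compounds interfering with the detection technology; potency reflects signal decrease which marks the compound as an assay artifact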

In the case of COc1ccc(N2C(=O)CSC23C(=O)N2c4c(cccc43)C(C)=CC2(C)C)cc1 (configuration not stated), the AC50 [1] is reported as 10.3 µM (active), the EC50 [2] is reported as > 53 µM (inactive) and the IC50 [3] is reported as 11 µM (active). For the same compound, the IC50 [4] was 4.46 µM (active) and the EC50 (Protein RecA) was 35.6 µM (active).

In the case of COc1ccc(-c2cc3nc(C4CCN(C(=O)OC(C)(C)C)CC4)c(C(=O)O)cn3n2)cc1, the EC50 [2] is reported as > 53 µM (inactive), the IC50 [3] is reported as 13.1 µM (active) and the IC50 [4] is reported as 7.23 µM (active).

In the case of Oc1nc(Nc2ccc3c(c2)OCCO3)nnc1Cc1ccccc1, the IC50 [5] is reported as 35.9 µM (inactive), the EC50 [6] is reported as > 38 µM (not active) and the IC50 [7] is reported as 35.9 µM (inactive). For the same compound, the IC50 (Steroidogenic factor 1) was 1.87 µM (active) and the EC50 [8] was > 160 µM (inconclusive).

In the case of Cc1onc(-c2ccccc2Cl)c1C(=O)ON=C(N)c1ccc([N+](=O)[O-])o1, the CC50 [9] is reported as 17.9 µM (active), the IC50 [5] is reported as 35.9 µM (inactive) and the IC50 [7] is reported as 0.495 µM (active). For the same compound, the CC50 [10] was 14.9 µM (active), the IC50 (Steroidogenic factor 1) was 0.309 µM (active) and the IC50 (cells) was 2.13 µM (active).

For O=C(O)c1ccc(NC(=S)NC(=O)c2ccc(-c3ccccc3)cc2)cc1, the EC50 [2] was > 53 µM (inactive), the IC50 [3] was 6.04 µM (active) and the IC50 [4] was 5.93 µM (active). The EC50 [6] was 1.28 µM (active), the EC50 (Troponin, cardiac muscle) was > 71.5 µM (inactive) and the EC50 [11] was 4.73 µM (active). The EC50 [8] was > 150 µM (inactive).

With CC(O)(c1ccc(F)c(F)c1)c1nc(-c2ccc(S(C)(=O)=O)cc2)cs1 (configuration not stated) the IC50 [5] was 35.8 µM (inactive), the IC50 [7] was 11.3 µM (inactive) and the IC50 (Steroidogenic factor 1) was 1.91 µM (active).

For O=C(Nc1nnc(-c2ccccn2)o1)c1cccc(Cl)c1, the CC50 [9] was > 40 µM (active), the EC50 (Streptococcus) was 16.5 µM (active) and the EC50 [12] was 2.42 µM (active). For the same compound, the EC50 [13] was > 50 µM (active), the EC50 (Streptokinase A) was > 150 µM (not active) and the AC50 [14] was 89.6 µM (active). The CC50 [10] was > 20 µM (active) and the IC50 (cells) was 3.73 µM (active).
